Source: EP0562731A1, “Substituted pyridinesulfonamide compounds or their salts, process for preparing the same, and herbicides containing the same” (ISHIHARA SANGYO KAISHA, Ltd., priority 1992, dated 1993)

Legend:
Assay type in all cases: in vivo
[1] = tested on: corn (Zea mays); experiment: Test Example 1: foliar application pot test, visual growth control rating; set-up: key: 1: the same as in an untreated plot; 10: perfect growth control; conditions: wettable powder, observed 20 to 31 days after application
Excerpt: (§1) 1/1,500 are [are (a) = 100 m²] pots were filled with upland farming soil, which in the pots was then sown with a variety of plants. The plants grown will be enumerated below.
(§2) When each plant reached a given growth stage (a 1.2- to 3.0-leaf stage for rice, primary leaf to a 0.7-leaf stage for soybean, 2.1- to 3.6-leaf stage for corn, cotyledon to 0.7-leaf stage for cotton, 2.0- to 3.0-leaf stage for wheat, 0.3- to 3.4-leaf stage for cocklebur, 0.3- to 1.6-leaf stage for morning glory, 0.1- to 1.3-leaf stage for prickly sida, 0.1- to 1.3-leaf stage for slender amaranth, 1.5- to 3.2-leaf stage for barnyard glass, and 1.2- to 3.0-leaf stage for large crabgrass), a predetermined amount of the herbicide of the present invention in the form of a wettable powder, weighed out, diluted with 5 ℓ/a of water and admixed with 0.2 or 0.1 vol%, based on the resulting composition, of an agricultural spreader, was foliarly applied to the plant with a small spray gun. The progress of growth of the plant was visually observed 20 to 31 days after the foliar application to evaluate the degree of growth control according to 10 ratings (1: the same as in an untreated plot - 10: perfect growth control).

[2] = tested on: slender amaranth (Amaranthus viridis); experiment: as above; set-up: key: 1: the same as in an untreated plot; 10: perfect growth control; conditions: wettable powder, observed 20 to 31 days after application
Excerpt: as §1, §2

[3] = tested on: morning glory (Ipomoea purpurea); experiment: as above; set-up: key: 1: the same as in an untreated plot; 10: perfect growth control; conditions: wettable powder, observed 20 to 31 days after application
Excerpt: as §1, §2

[4] = tested on: rice (Oryza sativa); experiment: as above; set-up: key: 1: the same as in an untreated plot; 10: perfect growth control; conditions: wettable powder, observed 20 to 31 days after application
Excerpt: as §1, §2

[5] = tested on: barnyard grass (Echinochloa crus-galli); experiment: as above; set-up: key: 1: the same as in an untreated plot; 10: perfect growth control; conditions: wettable powder, observed 20 to 31 days after application
Excerpt: as §1, §2

[6] = tested on: large crabgrass (Digitaria adscendens); experiment: as above; set-up: key: 1: the same as in an untreated plot; 10: perfect growth control; conditions: wettable powder, observed 20 to 31 days after application
Excerpt: as §1, §2

[7] = tested on: velvet leaf; experiment: Test Example 3: foliar application pot test, percent growth inhibition by fresh weight of aerial part and Colby's value; conditions: Abutilon theophrasti, velvet leaf 1-leaf stage, 20th day from foliar application, fresh weight of aerial part, read-out: Percent Growth Inhibition (%) Found; for inhibition at 16 g/ha: 0.16 g/a; for inhibition at 63 g/ha: 0.63 g/a
Excerpt: (§3) 1/10000-are pot was filled with upland farming soil and sown with velvet leaf. When the plant reached the 1-leaf stage, a predetermined amount of the herbicide of the present invention diluted with 5 ℓ of water per are and admixed with 0.1 vol%, based on the aqueous solution, of an agricultural spreader ("Kusa Rino") was foliarly applied to the plant with a small spray gun. On the 20th day from the application, the aerial part of the plant was weighed to obtain a percent growth inhibition according to Equation (1) (found value) and a Colby's value (calculated value) according to Equation (2) (see Weed, Vol. 15, pp. 20-22 (1967)). Percent Growth Inhibition (%) = (1 -(Fresh Weight of Aerial Part of Plant in Treated Plot)/(Fresh Weight of Aerial Part of Plant in Untreated Plot)) x 100 [formula] Colby's Value (E) = α + β -(α x β)/(100) [formula]
(§4) Wherein α represents a percent growth inhibition when treated with an amount a (g/a) of herbicide A; β represents a percent growth inhibition when treated with amount b (g/a) of herbicide B; and E represents an expected percent growth inhibition when treated with a of herbicide A and b of herbicide B.

[8] = tested on: velvet leaf (Abutilon theophrasti); experiment: Test Example 2: foliar application pot test, visual herbicidal effect rating, single and combined herbicides; conditions: velvet leaf 1.2-leaf stage, 25 days after foliar application; also: ranges in brackets are in %
Excerpt: 1/10000-are pot was filled with upland farming soil and sown with velvet leaf (Abutilon theophrasti). When the plant reached the 1.2-leaf stage, a predetermined amount of the herbicide of the present invention diluted with 5 ℓ of water per are and admixed with 0.1 vol%, based on the aqueous solution, of an agricultural spreader ("Kusa Rino", produced by Nihon Nohyaku Co., Ltd.) was foliarly applied to the plant with a small spray gun. The herbicidal effect was visually observed 25 days after the foliar application and evaluated according to the rating system shown below.

[9] = tested on: velvet leaf; experiment: Test Example 4: foliar application pot test, percent growth inhibition by fresh weight of aerial part and Colby's value; conditions: Abutilon theophrasti, read-out: Percent Growth Inhibition (%) Found
Excerpt: as §3, §4
1/10000-are pot was filled with upland farming soil and sown with velvet leaf. When the plant reached the 1-leaf stage, a predetermined amount of the herbicide of the present invention diluted with 5 ℓ of water per are and admixed with 0.1 vol%, based on the aqueous solution, of an agricultural spreader ("Kusa Rino") was foliarly applied to the plant with a small spray gun. On the 20th day from the application, the aerial part of the plant was weighed to obtain a percent growth inhibition and a Colby's value in the same manner as in Test Example 3.

[10] = tested on: large crabgrass (Digitaria adscendens); experiment: Test Example 5: foliar application pot test, percent growth inhibition by fresh weight of aerial part and Colby's value; conditions: read-out: Percent Growth Inhibition (%) Found
Excerpt: as §3, §4
1/10000-are pot was filled with upland farming soil and sown with large crabgrass (Digitaria adscendens). When the plant reached the 2-leaf stage, a predetermined amount of the herbicide of the present invention diluted with 5 ℓ of water per are and admixed with 0.1 vol%, based on the aqueous solution, of an agricultural spreader ("Kusa Rino") was foliarly applied to the plant with a small spray gun. On the 20th day from the application, the aerial part of the plant was weighed to obtain a percent growth inhibition and a Colby's value in the same manner as in Test Example 3.

[11] = tested on: cocklebur (Xanthium strumarium); experiment: Test Example 1: foliar application pot test, visual growth control rating; set-up: key: 1: the same as in an untreated plot; 10: perfect growth control; conditions: wettable powder, observed 20 to 31 days after application
Excerpt: as §1, §2

[12] = tested on: cotton (Gossypium); experiment: as above; conditions: wettable powder, observed 20 to 31 days after application
Excerpt: as §1, §2

[13] = tested on: prickly sida (Sida spinosa); experiment: as above; set-up: key: 1: the same as in an untreated plot; 10: perfect growth control; conditions: 1.25 g/a active ingredient, wettable powder, observed 20 to 31 days after application
Excerpt: as §1, §2

[14] = tested on: soybean (Glycine max); experiment: as above; set-up: key: 1: the same as in an untreated plot; 10: perfect growth control; conditions: 1.25 g/a active ingredient, wettable powder, observed 20 to 31 days after application
Excerpt: as §1, §2

[15] = tested on: wheat (Triticum); experiment: as above; set-up: key: 1: the same as in an untreated plot; 10: perfect growth control; conditions: 1.25 g/a active ingredient, wettable powder, observed 20 to 31 days after application
Excerpt: as §1, §2

CCN(c1cccc(S(=O)(=O)NC(=O)Nc2nc(C)nc(OC)n2)n1)S(=O)(=O)C(C)Cl (racemic) [Compound No. 54, 6-[[N-(1-chloroethylsulfonyl)-N-ethyl]amino]-N-[[(4-methoxy-6-methyltriazin-2-yl)amino]carbonyl]-2-pyridinesulfonamide]
degree of growth control, ZE ([1]; 0.31 g/a active ingredient): 10 | degree of growth control, ZE ([1]; 1.25 g/a active ingredient): 10 | degree of growth control, AM ([2]; 0.31 g/a active ingredient): 9 | degree of growth control, AM ([2]; 1.25 g/a active ingredient): 9 | degree of growth control, IP ([3]; 0.31 g/a active ingredient): 9 | degree of growth control, IP ([3]; 1.25 g/a active ingredient): 9 | degree of growth control, OR ([4]; 0.31 g/a active ingredient): 9 | degree of growth control, OR ([4]; 1.25 g/a active ingredient): 9 | degree of growth control, EC ([5]; 0.31 g/a active ingredient): 10 | degree of growth control, EC ([5]; 1.25 g/a active ingredient): 10 | degree of growth control, DI ([6]; 0.31 g/a active ingredient): 3 | degree of growth control, DI ([6]; 1.25 g/a active ingredient): 3 | inhibition at 16 g/ha [7]: 19% | inhibition at 31 g/ha ([7]; 0.31 g/a): 52% | inhibition at 63 g/ha [7]: 86% | Rating ([8]; 0.16 g/a): 3 (30-39) | Rating ([8]; 0.31 g/a): 5 (50-59) | Rating ([8]; 0.63 g/a): 6 (60-69) | Rating ([8]; 1.25 g/a): 8 (80-89) | inhibition at 16 g/ha ([9]; 0.16 g/a, velvet leaf 1-leaf stage, 20th day from foliar application, fresh weight of aerial part): 12% | inhibition at 31 g/ha ([9]; 0.31 g/a, velvet leaf 1-leaf stage, 20th day from foliar application, fresh weight of aerial part): 32% | inhibition at 63 g/ha ([9]; 0.63 g/a, velvet leaf 1-leaf stage, 20th day from foliar application, fresh weight of aerial part): 66% | inhibition at 16 g/ha ([10]; 0.16 g/a, foliar application, 20th day, large crabgrass): 19% | inhibition at 31 g/ha ([10]; 0.31 g/a, foliar application, 20th day, large crabgrass): 24% | inhibition at 63 g/ha ([10]; 0.63 g/a, foliar application, 20th day, large crabgrass): 77%

CCC(Cl)S(=O)(=O)N(CC)c1cccc(S(=O)(=O)NC(=O)Nc2nc(C)nc(OC)n2)n1 (racemic) [compound 88]
degree of growth control, ZE ([1]; 0.31 g/a active ingredient): 10 | degree of growth control, ZE ([1]; 1.25 g/a active ingredient): 10 | degree of growth control, IP ([3]; 0.31 g/a active ingredient): 10 | degree of growth control, IP ([3]; 1.25 g/a active ingredient): 10 | degree of growth control, EC ([5]; 0.31 g/a active ingredient): 10 | degree of growth control, EC ([5]; 1.25 g/a active ingredient): 10 | degree of growth control, XA ([11]; 0.31 g/a active ingredient): 10 | degree of growth control, XA ([11]; 1.25 g/a active ingredient): 10 | degree of growth control, GO ([12]; 0.31 g/a active ingredient): 6 | degree of growth control, GO ([12]; 1.25 g/a active ingredient): 6

CC(C)N1C(=O)c2ccccc2NS1(=O)=O [Bentazon, 3-(1-methylethyl)-(1H)-2,1,3-benzothiadiazin-4(3H)-one-2,2-dioxide, reference compound]
inhibition at 63 g/ha [7]: 17% | inhibition at 125 g/ha ([7]; 1.25 g/a): 69%

CCOC(=O)c1ccccc1S(=O)(=O)NC(=O)Nc1nc(Cl)cc(OC)n1 [Chlorimuron-ethyl, ethyl 2-[[[[(4-chloro-6-methoxy-2-pyrimidinyl)amino]carbonyl]amino]sulfonyl]benzoate]
Rating ([8]; 0.02 g/a): 6 (60-69) | Rating ([8]; 0.04 g/a): 8 (80-89) | Rating ([8]; 0.08 g/a): 9 (90-99)

CS(=O)(=O)NC(=O)c1cc(Oc2ccc(C(F)(F)F)cc2Cl)ccc1[N+](=O)[O-] [Fomesafen, 5-[2-chloro-4-(trifluoromethyl)phenoxy]-N-(methylsulfonyl)-2-nitrobenzamide]
Rating ([8]; 0.25 g/a): 3 (30-39) | Rating ([8]; 0.5 g/a): 7 (70-79) | Rating ([8]; 1.00 g/a): 7 (70-79)

CON(C)C(=O)Nc1ccc(Cl)c(Cl)c1 [Linuron, 3-(3,4-dichlorophenyl)-1-methoxy-1-methylurea, reference compound]
inhibition at 12.5 g/ha ([9]; foliar): 35% | inhibition at 25 g/ha ([9]; foliar): 61% | inhibition at 12.5 g/ha ([10]; foliar): 23% | inhibition at 25 g/ha ([10]; foliar): 68% | inhibition at 50 g/ha ([10]; foliar): 79%

CSc1nnc(C(C)(C)C)c(=O)n1N [Metribuzin, 4-amino-6-(1,1-dimethylethyl)-3-(methylthio)-1,2,4-triazin-5(4H)-one, reference compound]
inhibition at 16 g/ha [7]: 89%

CCCCS(=O)(=O)N(CC(C)C)c1cccc(S(=O)(=O)NC(=O)Nc2nc(C)nc(OC)n2)n1 [compound 82]
degree of growth control, ZE ([1]; 1.25 g/a active ingredient): 8 | degree of growth control, AM ([2]; 1.25 g/a active ingredient): 7 | degree of growth control, SI [13]: 1 | degree of growth control, GL [14]: 3 | degree of growth control, IP ([3]; 1.25 g/a active ingredient): 6 | degree of growth control, TR [15]: 4 | degree of growth control, OR ([4]; 1.25 g/a active ingredient): 4 | degree of growth control, EC ([5]; 1.25 g/a active ingredient): 4 | degree of growth control, DI ([6]; 1.25 g/a active ingredient): 3 | degree of growth control, XA ([11]; 1.25 g/a active ingredient): 9

CCN(c1cccc(S(=O)(=O)NC(=O)Nc2nc(OC)nc(OC)n2)n1)S(=O)(=O)CC(F)(F)F [compound 92]
degree of growth control, ZE ([1]; 1.25 g/a active ingredient): 7 | degree of growth control, AM ([2]; 1.25 g/a active ingredient): 5 | degree of growth control, SI [13]: 6 | degree of growth control, GL [14]: 7 | degree of growth control, IP ([3]; 1.25 g/a active ingredient): 10 | degree of growth control, TR [15]: 9 | degree of growth control, OR ([4]; 1.25 g/a active ingredient): 5 | degree of growth control, EC ([5]; 1.25 g/a active ingredient): 6 | degree of growth control, DI ([6]; 1.25 g/a active ingredient): 3 | degree of growth control, XA ([11]; 1.25 g/a active ingredient): 10
